Here are results for two molecules from patent publication US20250255976A1, “CATIONIC BIOMATERIALS AMELIORATE OBESITY-ASSOCIATED CHRONIC INFLAMMATION AND FOCAL ADIPOSITY” (THE TRUSTEES OF COLUMBIA UNIVERSITY IN THE CITY OF NEW YORK, priority 2022, published 2025).

This assay addresses T1, TLR3 (Homo sapiens, UniProt O15455).
T1 construct: host or cells: HEK-Blue (HEK293) TLR3 reporter cells
T1 sequence (O15455 24-904): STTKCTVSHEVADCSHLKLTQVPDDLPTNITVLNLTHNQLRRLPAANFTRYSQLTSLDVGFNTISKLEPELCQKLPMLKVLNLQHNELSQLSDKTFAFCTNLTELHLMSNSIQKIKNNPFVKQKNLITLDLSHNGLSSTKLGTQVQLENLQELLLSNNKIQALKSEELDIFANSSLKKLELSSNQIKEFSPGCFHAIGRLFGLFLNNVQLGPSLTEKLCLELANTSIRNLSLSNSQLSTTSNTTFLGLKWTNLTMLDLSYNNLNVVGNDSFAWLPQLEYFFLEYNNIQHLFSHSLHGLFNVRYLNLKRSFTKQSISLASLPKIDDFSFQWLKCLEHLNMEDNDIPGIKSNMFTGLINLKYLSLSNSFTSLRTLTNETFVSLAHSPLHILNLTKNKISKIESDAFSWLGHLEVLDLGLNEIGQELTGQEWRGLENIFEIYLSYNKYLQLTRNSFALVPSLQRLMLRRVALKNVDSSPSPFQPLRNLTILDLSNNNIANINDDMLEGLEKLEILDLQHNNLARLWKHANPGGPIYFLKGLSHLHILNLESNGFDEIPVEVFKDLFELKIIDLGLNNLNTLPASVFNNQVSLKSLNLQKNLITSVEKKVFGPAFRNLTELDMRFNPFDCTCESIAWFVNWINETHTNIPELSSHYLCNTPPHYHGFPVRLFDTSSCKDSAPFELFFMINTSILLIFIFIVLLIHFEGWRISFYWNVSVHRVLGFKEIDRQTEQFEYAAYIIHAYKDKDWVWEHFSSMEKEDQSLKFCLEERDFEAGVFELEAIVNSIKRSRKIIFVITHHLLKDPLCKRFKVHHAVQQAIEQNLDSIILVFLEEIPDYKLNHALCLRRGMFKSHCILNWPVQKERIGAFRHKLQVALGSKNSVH
Kind of assay: HEK-Blue TLR3 reporter cell SEAP assay, stimulated with murine plasma or liver total RNA. The class given is cell-based. The following applies: plasma from DIO mice; inhibitor added 30 min before stimulus, or plasma digested with RNase I; FIG. 2F. The method, then: Stable TLR3-, 4-, 8-, and 9-overexpressing HEK-Blue and TLR3 knockout (KO) HEK-Dual Null cells (Invivogen) were propagated in high-glucose Dulbecco's modified Eagle's medium (DMEM) with 10% (v/v) fetal bovine serum (FBS, Corning) and maintained in growth medium supplemented with selective antibiotics following the manufacturer's instructions. RAW264.7 cells (ATCC) were cultured in high-glucose DMEM with 10% (v/v) FBS and then were subcultured by detachment with a cell scraper. C3H10T1/2 cells (ATCC) were cultured in high-glucose DMEM with 10% (v/v) FBS and 1× penicillin/streptomycin (Thermo Fisher). 3T3-L1 cells (ATCC) were cultivated in high-glucose DMEM with 10% (v/v) calf serum and 1× penicillin/streptomycin to maintain the undifferentiated status. At two days post-confluence, 3T3-L1 preadipocytes were induced to differentiate into adipocytes using an adipogenic cocktail containing 10 μg/mL insulin, 1 μM dexamethasone, and 0.5 mM 3-isobutyl-1-methylxanthine in 10% FBS DMEM. Two days post-induction, the cell medium was switched to the maintenance medium of 10% FBS DMEM supplemented with 2.5 μg/mL insulin.
HEK-Blue TLR3 cells (5×10^4 cells/well) were seeded and cultured overnight in 96-well plates in DMEM and then stimulated with murine plasma or liver total RNA. After 48 h, the activation of reporter cells was determined with a Quanti-blue medium (Invivogen). […]

With ribonuclease I [RNase I], the “activation of TLR3 by obese plasma” value is recorded as “blocked”.

In the case of `O=C(N[C@H](Cc1ccccc1)C(=O)O)c1sc2cc(F)ccc2c1Cl` [TLR3 inhibitor], the “activation of TLR3 by obese plasma” value is “blocked”.
